Test system: endocrine progenitor cells directed to differentiate into SC-β cells
Test: Stimulation index (glucose stimulated insulin secretion) of SC-β cells generated from endocrine progenitor cells in the presence of a JNK inhibitor
Assay type: cell-based, human
Conditions: Stimulation index=[insulin@20 mM glucose]/[insulin@2 mM glucose]; Relative Stim Index=Stim Index/Stim Index of Control; versus SC-β cells generated in the absence of the JNK inhibitor; inhibitor added to Step 6 (FIG. 1, FIG. 2C)
Description: Stimulation index=[insulin@20 mM glucose]/[insulin@2 mM glucose]. Relative Stim Index=Stim Index/Stim Index of Control.
FIG. 2C is a schematic illustrating an exemplary method for generating SC-β cells by adding a JNK inhibitor to Step 6 of the exemplary protocol shown in FIG. 2B.
The methods of the present invention contemplate contacting cells (e.g., endocrine progenitor cells or precursors thereof) with effective amounts of one or more agents that decrease the level and/or activity of JNK. An “effective amount” of an agent (or composition containing such agent) refers to the amount sufficient to achieve a desired effect, e.g., when delivered to a cell or subject according to a selected administration form, route, and/or schedule. As will be appreciated by those of ordinary skill in this art, the absolute amount of a particular agent or composition that is effective may vary depending on such factors as the desired biological or pharmacological endpoint, the agent to be delivered, the target tissue, etc. Those of ordinary skill in the art will further understand that an “effective amount” may be contacted with cells or administered in a single dose, or the desired effect may be achieved by use of multiple doses. An effective amount of a composition may be an amount sufficient to reduce the severity of or prevent one or more symptoms or signs of a disorder (e.g., diabetes). […]

## O=C1c2ccccc2-c2n[nH]c3cccc1c23 [SP600125, Anthra[1,9-cd]pyrazol-6(2H)-on]
  Relative stimulation index of generated SC-β cells: greater stimulation index

From patent publication US10927350B2, “Methods for generating stem cell-derived beta cells and uses thereof” (President and Fellows of Harvard College, priority 2014, dated 2021)
